Data reported in PubChem BioAssay (NCI).
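Abbreviation: GI50, concentration required for 50% inhibition of growth. TGI denotes the concentration required for complete inhibition of growth.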

How the values were obtained:
Experiment in all cases: NCI-60 cell line screen, 384-well format
[1] = tested on: T-47D breast
[2] = tested on: SK-OV-3 ovarian
[3] = tested on: HOP-62 NSCLC
[4] = tested on: DU-145 prostate
[5] = tested on: SF-268 CNS
[6] = tested on: RPMI-8226 leukemia
[7] = tested on: HOP-92 NSCLC
[8] = tested on: NCI-H522 lung
[9] = tested on: ACHN renal
[10] = tested on: MCF7 breast
[11] = tested on: NCI-H226 lung
[12] = tested on: NCI-H322M lung
[13] = tested on: OVCAR-3 ovarian
[14] = tested on: SF-295 CNS
[15] = tested on: OVCAR-4 ovarian
[16] = tested on: MOLT-4 leukemia
[17] = tested on: MDA-MB-435 melanoma
[18] = tested on: CAKI-1 renal
[19] = tested on: MDA-MB-231 breast
[20] = tested on: IGROV1 ovarian
[21] = tested on: NCI/ADR-RES ovarian
[22] = tested on: NCI-H23 lung
[23] = tested on: A498 renal
[24] = tested on: HCC-2998 colon
[25] = tested on: OVCAR-8 ovarian
[26] = tested on: HCT-116 colon
[27] = tested on: M14 melanoma
[28] = tested on: SNB-19 CNS
[29] = tested on: SF-539 CNS
[30] = tested on: A549 NSCLC
[31] = tested on: NCI-H460 NSCLC
[32] = tested on: SN12C renal
[33] = tested on: SK-MEL-2 melanoma
[34] = tested on: SK-MEL-5 melanoma
[35] = tested on: SR leukemia
[36] = tested on: MDA-MB-468 breast
[37] = tested on: BT-549 breast
[38] = tested on: MALME-3M melanoma
[39] = tested on: UO-31 renal
[40] = tested on: OVCAR-5 ovarian
[41] = tested on: K-562 leukemia
[42] = tested on: LOX IMVI melanoma
[43] = tested on: U251 glioblastoma
[44] = tested on: TK-10 renal
[45] = tested on: COLO 205 colon
[46] = tested on: RXF 393 renal
[47] = tested on: SW-620 colon
[48] = tested on: CCRF-CEM leukemia
[49] = tested on: HL-60(TB) leukemia
[50] = tested on: 786-0 renal
[51] = tested on: SK-MEL-28 melanoma
[52] = tested on: HCT-15 colon
[53] = tested on: UACC-257 melanoma

C=C1C[C@@H]2CC[C@@]34C[C@H]5O[C@H]6[C@@H](O3)[C@H]3O[C@H](CC[C@@H]3O[C@H]6[C@@H]5O4)CC(=O)C[C@@H]3[C@@H](OC)[C@@H](C[C@H](O)CN)O[C@H]3C[C@H]3O[C@@H](CC[C@@H]1O2)C[C@@H](C)C3=C
GI50 [1]: < 10 nM
TGI [1]: > 100000 nM
GI50 [2]: < 10 nM
TGI [2]: 84.9 nM
GI50 [3]: < 10 nM
TGI [3]: 3340 nM
GI50 [4]: < 10 nM
TGI [4]: < 10 nM
GI50 [5]: < 10 nM
TGI [5]: 40 nM
GI50 [6]: < 10 nM
TGI [6]: < 10 nM
GI50 [7]: < 10 nM
TGI [7]: 52.8 nM
GI50 [8]: < 10 nM
TGI [8]: < 10 nM
GI50 [9]: 73.3 nM
TGI [9]: > 100000 nM
GI50 [10]: < 10 nM
TGI [10]: 596 nM
GI50 [11]: < 10 nM
TGI [11]: 206 nM
GI50 [12]: < 10 nM
TGI [12]: > 100000 nM
GI50 [13]: < 10 nM
TGI [13]: < 10 nM
GI50 [14]: 22.9 nM
TGI [14]: 246 nM
GI50 [15]: < 10 nM
TGI [15]: 974 nM
GI50 [16]: < 10 nM
TGI [16]: < 10 nM
GI50 [17]: < 10 nM
TGI [17]: < 10 nM
GI50 [18]: < 10 nM
TGI [18]: > 100000 nM
GI50 [19]: < 10 nM
TGI [19]: 165 nM
GI50 [20]: < 10 nM
TGI [20]: > 100000 nM
GI50 [21]: 1900 nM
TGI [21]: 5950 nM
GI50 [22]: < 10 nM
TGI [22]: < 10 nM
GI50 [23]: < 10 nM
TGI [23]: 1100 nM
GI50 [24]: < 10 nM
TGI [24]: < 10 nM
GI50 [25]: < 10 nM
TGI [25]: 27.6 nM
GI50 [26]: < 10 nM
TGI [26]: 219 nM
GI50 [27]: < 10 nM
TGI [27]: 2720 nM
GI50 [28]: < 10 nM
TGI [28]: 41.2 nM
GI50 [29]: < 10 nM
TGI [29]: < 10 nM
GI50 [30]: < 10 nM
TGI [30]: 186 nM
GI50 [31]: < 10 nM
TGI [31]: < 10 nM
GI50 [32]: < 10 nM
TGI [32]: > 100000 nM
GI50 [33]: < 10 nM
TGI [33]: < 10 nM
GI50 [34]: < 10 nM
TGI [34]: < 10 nM
GI50 [35]: < 10 nM
TGI [35]: < 10 nM
GI50 [36]: < 10 nM
TGI [36]: < 10 nM
GI50 [37]: < 10 nM
TGI [37]: < 10 nM
GI50 [38]: < 10 nM
TGI [38]: > 100000 nM
GI50 [39]: 225 nM
TGI [39]: > 100000 nM
GI50 [40]: < 10 nM
TGI [40]: > 100000 nM
GI50 [41]: < 10 nM
TGI [41]: 12.9 nM
GI50 [42]: < 10 nM
TGI [42]: 43.3 nM
GI50 [43]: < 10 nM
TGI [43]: 14.1 nM
GI50 [44]: 52.8 nM
TGI [44]: > 100000 nM
GI50 [45]: < 10 nM
TGI [45]: 16.6 nM
GI50 [46]: < 10 nM
TGI [46]: < 10 nM
GI50 [47]: < 10 nM
TGI [47]: > 100000 nM
GI50 [48]: < 10 nM
TGI [48]: < 10 nM
GI50 [49]: < 10 nM
TGI [49]: < 10 nM
GI50 [50]: < 10 nM
TGI [50]: 389 nM
GI50 [51]: < 10 nM
TGI [51]: > 100000 nM
GI50 [52]: 69 nM
TGI [52]: 3500 nM
GI50 [53]: < 10 nM
TGI [53]: 85300 nM
